Assays:
[1] = tested on: Southern Armyworm (Spodoptera eridania); assay: Southern armyworm lima bean foliar spray test (B.5); format: in vivo; conditions: 96 h, larvae on sprayed lima bean plants, 4 days after treatment, read-out: mortality in comparison with untreated controls
Procedure: B.5 Southern Armyworm (Spodoptera eridania)
The active compounds were formulated by a Tecan liquid handler in 100% cyclohexanone as a 10,000 ppm solution supplied in tubes. The 10,000 ppm solution was serially diluted in 100% cyclohexanone to make interim solutions. These served as stock solutions for which final dilutions were made by the Tecan in 50% acetone:50% water (v/v) into 5 or 10 ml glass vials. A nonionic surfactant (Kinetic®) was included in the solution at a volume of 0.01% (v/v). The vials were then inserted into an automated electrostatic sprayer equipped with an atomizing nozzle for application to plants/insects.
Lima bean plants (variety Sieva) were grown 2 plants to a pot and selected for treatment at the 1st true leaf stage. Test solutions were sprayed onto the foliage by an automated electrostatic plant sprayer equipped with an atomizing spray nozzle. The plants were dried in the sprayer fume hood and then removed from the sprayer. Each pot was placed into perforated plastic bags with a zip closure. About 10 to 11 armyworm larvae were placed into the bag and the bags zipped closed. […] Mortality and reduced feeding were assessed 4 days after treatment, compared to untreated control plants.

[2] = tested on: Vetch Aphid (Megoura viciae); assay: Vetch aphid broad bean leaf disk test (B.6); format: in vivo; conditions: foliar, 120 h, adult aphids on sprayed broad bean leaf disks, 5 days, read-out: mortality in comparison with untreated controls
Procedure: B.6 Vetch Aphid (Megoura viciae)
For evaluating control of vetch aphid (Megoura viciae) through contact or systemic means the test unit consisted of 24-well-microtiter plates containing broad bean leaf disks.
The compounds were formulated using a solution containing 75% v/v water and 25% v/v DMSO. Different concentrations of formulated compounds were sprayed onto the leaf disks at 2.5 μl, using a custom built micro atomizer, at two replications. After application, the leaf disks were air-dried and 5-8 adult aphids placed on the leaf disks inside the microtiter plate wells. The aphids were then allowed to suck on the treated leaf disks and incubated at about 23±1° C. and about 50±5% relative humidity for 5 days. Aphid mortality and fecundity was then visually assessed.

[3] = tested on: Mediterranean Fruitfly (Ceratitis capitata); assay: Mediterranean fruitfly microtiter diet test (B.3); conditions: 120 h, read-out: mortality in comparison with untreated controls
[4] = tested on: Tobacco Budworm (Heliothis virescens); assay: Tobacco budworm microtiter diet test (B.7); format: in vivo; conditions: 120 h, egg and larval mortality, sprayed insect diet, 5 days, read-out: mortality in comparison with untreated controls
Procedure: B.7 Tobacco Budworm (Heliothis virescens)
For evaluating control of tobacco budworm (Heliothis virescens) the test unit consisted of 96-well-microtiter plates containing an insect diet and 15-25 H. virescens eggs. The compounds were formulated using a solution containing 75% v/v water and 25% v/v DMSO. Different concentrations of formulated compounds were sprayed onto the insect diet at 10 μl, using a custom built micro atomizer, at two replications.
After application, microtiter plates were incubated at about 28±1° C. and about 80±5% relative humidity for 5 days. Egg and larval mortality was then visually assessed.

[5] = tested on: Diamond Back Moth (Plutella xylostella); assay: Diamond back moth leaf-dip test (B.1); format: in vivo; conditions: cabbage leaves dipped, 3rd instar larvae, 72 hours after treatment, read-out: mortality in comparison with untreated controls
Procedure: B.1 Diamond Back Moth (Plutella xylostella)
The active compound was dissolved at the desired concentration in a mixture of 1:1 (vol:vol) distilled water:aceteone. Surfactant (Kinetic HV) was added at a rate of 0.01% (vol/vol). The test solution was prepared at the day of use.
Leaves of cabbage were dipped in test solution and air-dried. Treated leaves were placed in petri dishes lined with moist filter paper and inoculated with ten 3rd instar larvae. Mortality was recorded 72 hours after treatment. Feeding damages were also recorded using a scale of 0-100%.

[6] = tested on: Boll Weevil (Anthonomus grandis); assay: Boll weevil microtiter diet test (B.8); format: in vivo; conditions: 120 h, egg and larval mortality, sprayed insect diet, 5 days, read-out: mortality in comparison with untreated controls
Procedure: B.8 Boll Weevil (Anthonomus grandis)
For evaluating control of boll weevil (Anthonomus grandis) the test unit consisted of 96-well-microtiter plates containing an insect diet and 5-10 A. grandis eggs.
The compounds were formulated using a solution containing 75% v/v water and 25% v/v DMSO. Different concentrations of formulated compounds were sprayed onto the insect diet at 5 μl, using a custom built micro atomizer, at two replications.
After application, microtiter plates were incubated at about 25±1° C. and about 75±5% relative humidity for 5 days. Egg and larval mortality was then visually assessed.

[7] = tested on: Green Peach Aphid (Myzus persicae); assay: Green peach aphid artificial diet systemic test (B.2); format: in vivo; conditions: 72 h, adult aphids on treated artificial diet, 3 days, read-out: mortality in comparison with untreated controls
Source text: B.2 Green Peach Aphid (Myzus persicae)
For evaluating control of green peach aphid (Myzus persicae) through systemic means the test unit consisted of 96-well-microtiter plates containing liquid artificial diet under an artificial membrane.
The compounds were formulated using a solution containing 75% v/v water and 25% v/v DMSO. Different concentrations of formulated compounds were pipetted into the aphid diet, using a custom built pipetter, at two replications.
After application, 5-8 adult aphids were placed on the artificial membrane inside the microtiter plate wells. The aphids were then allowed to suck on the treated aphid diet and incubated at about 23±1° C. and about 50±5% relative humidity for 3 days. Aphid mortality and fecundity was then visually assessed.

Cc1cc(C2=NSC(c3cc(Cl)c(Cl)c(Cl)c3)(C(F)(F)F)C2)sc1C(=O)OC(C)(C)C (stereo not shown) [Compound 1-1, tert-Butyl 3-methyl-5-[5-(3,4,5-trichlorophenyl)-5-(trifluoromethyl)-4H-isothiazol-3-yl]thiophene-2-carboxylate]
≥ 75%: mortality at 300 ppm [1]

Cc1cc(C2=NSC(c3cc(Cl)c(Cl)c(Cl)c3)(C(F)(F)F)C2)sc1C(=O)NCC(F)(F)F (stereo not shown) [Compound 1-7, 3-Methyl-5-[5-(3,4,5-trichlorophenyl)-5-(trifluoromethyl)-4H-isothiazol-3-yl]-N-(2,2,2-trifluoroethyl)thiophene-2-carboxamide]
≥ 75%: mortality at 2500 ppm [2] | mortality at 2500 ppm [3] | mortality at 2500 ppm [4] | mortality at 500 ppm [5] | mortality at 2500 ppm [6]

O=C(O)c1sc(C2=NSC(c3cc(Cl)c(F)c(Cl)c3)(C(F)(F)F)C2)cc1C(F)(F)F (stereo not shown) [Compound 1-9, 5-[5-(3,5-Dichloro-4-fluoro-phenyl)-5-(trifluoromethyl)-4H-isothiazol-3-yl]-3-(trifluoromethyl)-thiophene-2-carboxylic acid]
≥ 75%: mortality at 2500 ppm [4] | mortality at 2500 ppm [6]

O=C(NCc1ncccn1)c1sc(C2=NSC(c3cc(Cl)c(F)c(Cl)c3)(C(F)(F)F)C2)cc1C(F)(F)F (stereo not shown) [Compound 1-12, 5-[5-(3,5-Dichloro-4-fluoro-phenyl)-5-(trifluoromethyl)-4H-isothiazol-3-yl]-N-(pyrimidin-2-ylmethyl)-3-(trifluoromethyl)thiophene-2-carboxamide]
≥ 75%: mortality at 2500 ppm [2] | mortality at 2500 ppm [3] | mortality at 2500 ppm [4] | mortality at 2500 ppm [7] | mortality at 2500 ppm [6]
